From patent US20240000872A1, “NOVEL BACTERIOPHAGE THAT LYSES ACINETOBACTER GENUS BACTERIA HAVING RESISTANCE TO ANTIBIOTICS” (priority 2020, published 2024)

Tested on: Acinetobacter baumannii strains
Experiment: Antibiotic susceptibility test (CLSI disk diffusion test method, read per CLSI 2016); as to antibiotic susceptibility S/I/R: key: ‘S’ means susceptible; ‘I’ means intermediate; ‘R’ means resistant; as to antibiotic susceptibility class: key: ‘S’ means susceptible; ‘I’ means intermediate; ‘R’ means resistant; as to susceptibility category (S/I/R): key: ‘S’ means susceptible; ‘I’ means intermediate; ‘R’ means resistant
Format: cell-based
Design: antibiotic susceptibility test value / susceptibility test value (number given before S/I/R) / antibiotic susceptibility value: unit not given here

gentamicin
I: antibiotic susceptibility class (host strain YMC14/01/R921) | antibiotic susceptibility class (host strain YMC14/02/R1860)
S: antibiotic susceptibility class (host strain YMC14/01/R257) | antibiotic susceptibility class (host strain YMC14/01/R560) | antibiotic susceptibility class (host strain YMC14/02/R2599) | antibiotic susceptibility class (host strain YMC14/03/P471) | antibiotic susceptibility class (host strain YMC14/03/R618) | antibiotic susceptibility class (host strain YMC14/04/R1078) | antibiotic susceptibility class (host strain YMC14/04/R1080)
R: antibiotic susceptibility class (host strain YMC14/01/C29) | antibiotic susceptibility class (host strain YMC14/01/IP122) | antibiotic susceptibility class (host strain YMC14/01/L8) | antibiotic susceptibility class (host strain YMC14/01/P31) | antibiotic susceptibility class (host strain YMC14/01/P117) | antibiotic susceptibility class (host strain YMC14/01/P224) | antibiotic susceptibility class (host strain YMC14/01/P727) | antibiotic susceptibility class (host strain YMC14/01/P728) | antibiotic susceptibility class (host strain YMC14/01/R130) | antibiotic susceptibility class (host strain YMC14/01/R160) | antibiotic susceptibility class (host strain YMC14/01/R198) | antibiotic susceptibility class (host strain YMC14/01/R270) | antibiotic susceptibility class (host strain YMC14/01/R324) | antibiotic susceptibility class (host strain YMC14/01/R443) | antibiotic susceptibility class (host strain YMC14/01/R451) | antibiotic susceptibility class (host strain YMC14/01/R617) | antibiotic susceptibility class (host strain YMC14/01/R671) | antibiotic susceptibility class (host strain YMC14/01/R732) | antibiotic susceptibility class (host strain YMC14/01/R767) | antibiotic susceptibility class (host strain YMC14/01/R904) | antibiotic susceptibility class (host strain YMC14/01/R905) | antibiotic susceptibility class (host strain YMC14/01/R941) | antibiotic susceptibility class (host strain YMC14/01/R958) | antibiotic susceptibility class (host strain YMC14/01/R1006) | antibiotic susceptibility class (host strain YMC14/01/R1199) | antibiotic susceptibility class (host strain YMC14/01/R1659) | antibiotic susceptibility class (host strain YMC14/01/R1722) | antibiotic susceptibility class (host strain YMC14/01/R1752) | antibiotic susceptibility class (host strain YMC14/01/R2429) | antibiotic susceptibility class (host strain YMC14/01/R2572) | antibiotic susceptibility class (host strain YMC14/01/R2855) | antibiotic susceptibility class (host strain YMC14/01/R2945) | antibiotic susceptibility class (host strain YMC14/01/R3007) | antibiotic susceptibility class (host strain YMC14/01/R3129) | antibiotic susceptibility class (host strain YMC14/01/R3317) | antibiotic susceptibility class (host strain YMC14/01/R3474) | antibiotic susceptibility class (host strain YMC14/01/R3574) | antibiotic susceptibility class (host strain YMC14/01/U313) | antibiotic susceptibility class (host strain YMC14/01/U318) | antibiotic susceptibility class (host strain YMC14/02/L18) | antibiotic susceptibility class (host strain YMC14/02/P47) | antibiotic susceptibility class (host strain YMC14/02/R2417) | antibiotic susceptibility class (host strain YMC14/02/R2668) | antibiotic susceptibility class (host strain YMC14/02/R2758) | antibiotic susceptibility class (host strain YMC14/02/R2781) | antibiotic susceptibility class (host strain YMC14/02/R3106) | antibiotic susceptibility class (host strain YMC14/02/R3419) | antibiotic susceptibility class (host strain YMC14/02/U1607) | antibiotic susceptibility class (host strain YMC14/03/L9) | antibiotic susceptibility class (host strain YMC14/03/R122) | antibiotic susceptibility class (host strain YMC14/03/R217) | antibiotic susceptibility class (host strain YMC14/03/R380) | antibiotic susceptibility class (host strain YMC14/03/R2144) | antibiotic susceptibility class (host strain YMC14/03/U4616) | antibiotic susceptibility S/I/R (host strain YMC14/06/R2359) | susceptibility category (S/I/R) (host strain YMC14/06/R2359) | antibiotic susceptibility S/I/R (host strain YMC14/08/R1169) | susceptibility category (S/I/R) (host strain YMC14/08/R1169) | antibiotic susceptibility S/I/R (host strain YMC14/08/T90) | susceptibility category (S/I/R) (host strain YMC14/08/T90) | antibiotic susceptibility S/I/R (host strain YMC15/02/R436) | susceptibility category (S/I/R) (host strain YMC15/02/R436) | antibiotic susceptibility S/I/R (host strain YMC15/02/T28) | susceptibility category (S/I/R) (host strain YMC15/02/T28) | antibiotic susceptibility S/I/R (host strain YMC15/03/R1604) | susceptibility category (S/I/R) (host strain YMC15/03/R1604) | antibiotic susceptibility S/I/R (host strain YMC15/09/R1869) | susceptibility category (S/I/R) (host strain YMC15/09/R1869) | antibiotic susceptibility S/I/R (host strain YMC16/01/P11) | susceptibility category (S/I/R) (host strain YMC16/01/P11) | antibiotic susceptibility S/I/R (host strain YMC16/01/R123) | susceptibility category (S/I/R) (host strain YMC16/01/R123) | antibiotic susceptibility S/I/R (host strain YMC16/01/R198) | susceptibility category (S/I/R) (host strain YMC16/01/R198) | antibiotic susceptibility S/I/R (host strain YMC16/01/R353)
1: antibiotic susceptibility test value (host strain YMC14/01/R257)
16: antibiotic susceptibility test value (host strain YMC14/01/C29) | antibiotic susceptibility test value (host strain YMC14/01/IP122) | antibiotic susceptibility test value (host strain YMC14/01/L8) | antibiotic susceptibility test value (host strain YMC14/01/P31) | antibiotic susceptibility test value (host strain YMC14/01/P117) | antibiotic susceptibility test value (host strain YMC14/01/P224) | antibiotic susceptibility test value (host strain YMC14/01/P727) | antibiotic susceptibility test value (host strain YMC14/01/P728) | antibiotic susceptibility test value (host strain YMC14/01/R130) | antibiotic susceptibility test value (host strain YMC14/01/R160) | antibiotic susceptibility test value (host strain YMC14/01/R198) | antibiotic susceptibility test value (host strain YMC14/01/R270) | antibiotic susceptibility test value (host strain YMC14/01/R324) | antibiotic susceptibility test value (host strain YMC14/01/R443) | antibiotic susceptibility test value (host strain YMC14/01/R451) | antibiotic susceptibility test value (host strain YMC14/01/R617) | antibiotic susceptibility test value (host strain YMC14/01/R671) | antibiotic susceptibility test value (host strain YMC14/01/R732) | antibiotic susceptibility test value (host strain YMC14/01/R767) | antibiotic susceptibility test value (host strain YMC14/01/R904) | antibiotic susceptibility test value (host strain YMC14/01/R905) | antibiotic susceptibility test value (host strain YMC14/01/R941) | antibiotic susceptibility test value (host strain YMC14/01/R958) | antibiotic susceptibility test value (host strain YMC14/01/R1006) | antibiotic susceptibility test value (host strain YMC14/01/R1199) | antibiotic susceptibility test value (host strain YMC14/01/R1659) | antibiotic susceptibility test value (host strain YMC14/01/R1722) | antibiotic susceptibility test value (host strain YMC14/01/R1752) | antibiotic susceptibility test value (host strain YMC14/01/R2429) | antibiotic susceptibility test value (host strain YMC14/01/R2572) | antibiotic susceptibility test value (host strain YMC14/01/R2855) | antibiotic susceptibility test value (host strain YMC14/01/R2945) | antibiotic susceptibility test value (host strain YMC14/01/R3007) | antibiotic susceptibility test value (host strain YMC14/01/R3129) | antibiotic susceptibility test value (host strain YMC14/01/R3317) | antibiotic susceptibility test value (host strain YMC14/01/R3474) | antibiotic susceptibility test value (host strain YMC14/01/R3574) | antibiotic susceptibility test value (host strain YMC14/01/U313) | antibiotic susceptibility test value (host strain YMC14/01/U318) | antibiotic susceptibility test value (host strain YMC14/02/L18) | antibiotic susceptibility test value (host strain YMC14/02/P47) | antibiotic susceptibility test value (host strain YMC14/02/R2417) | antibiotic susceptibility test value (host strain YMC14/02/R2668) | antibiotic susceptibility test value (host strain YMC14/02/R2758) | antibiotic susceptibility test value (host strain YMC14/02/R2781) | antibiotic susceptibility test value (host strain YMC14/02/R3106) | antibiotic susceptibility test value (host strain YMC14/02/R3419) | antibiotic susceptibility test value (host strain YMC14/02/U1607) | antibiotic susceptibility test value (host strain YMC14/03/L9) | antibiotic susceptibility test value (host strain YMC14/03/R122) | antibiotic susceptibility test value (host strain YMC14/03/R217) | antibiotic susceptibility test value (host strain YMC14/03/R380) | antibiotic susceptibility test value (host strain YMC14/03/R2144) | antibiotic susceptibility test value (host strain YMC14/03/U4616) | antibiotic susceptibility value (host strain YMC14/06/R2359) | susceptibility test value (number given before S/I/R) (host strain YMC14/06/R2359) | antibiotic susceptibility value (host strain YMC14/08/R1169) | susceptibility test value (number given before S/I/R) (host strain YMC14/08/R1169) | antibiotic susceptibility value (host strain YMC14/08/T90) | susceptibility test value (number given before S/I/R) (host strain YMC14/08/T90) | antibiotic susceptibility value (host strain YMC15/02/R436) | susceptibility test value (number given before S/I/R) (host strain YMC15/02/R436) | antibiotic susceptibility value (host strain YMC15/02/T28) | susceptibility test value (number given before S/I/R) (host strain YMC15/02/T28) | antibiotic susceptibility value (host strain YMC15/03/R1604) | susceptibility test value (number given before S/I/R) (host strain YMC15/03/R1604) | antibiotic susceptibility value (host strain YMC15/09/R1869) | susceptibility test value (number given before S/I/R) (host strain YMC15/09/R1869) | antibiotic susceptibility value (host strain YMC16/01/P11) | susceptibility test value (number given before S/I/R) (host strain YMC16/01/P11) | antibiotic susceptibility value (host strain YMC16/01/R123) | susceptibility test value (number given before S/I/R) (host strain YMC16/01/R123) | antibiotic susceptibility value (host strain YMC16/01/R198) | susceptibility test value (number given before S/I/R) (host strain YMC16/01/R198)
2: antibiotic susceptibility test value (host strain YMC14/01/R560) | antibiotic susceptibility test value (host strain YMC14/02/R2599) | antibiotic susceptibility test value (host strain YMC14/03/P471) | antibiotic susceptibility test value (host strain YMC14/03/R618) | antibiotic susceptibility test value (host strain YMC14/04/R1078) | antibiotic susceptibility test value (host strain YMC14/04/R1080)
8: antibiotic susceptibility test value (host strain YMC14/01/R921) | antibiotic susceptibility test value (host strain YMC14/02/R1860)
